The target in test [1] is T1, 5'-lipoxygenase (Mus musculus, UniProt P48999).
T1 construct: Cf1 male mouse hepatic 10% homogenates; from tissue; host or cells: CF1 male mouse liver, 10% homogenate
T1 sequence (P48999 1-674): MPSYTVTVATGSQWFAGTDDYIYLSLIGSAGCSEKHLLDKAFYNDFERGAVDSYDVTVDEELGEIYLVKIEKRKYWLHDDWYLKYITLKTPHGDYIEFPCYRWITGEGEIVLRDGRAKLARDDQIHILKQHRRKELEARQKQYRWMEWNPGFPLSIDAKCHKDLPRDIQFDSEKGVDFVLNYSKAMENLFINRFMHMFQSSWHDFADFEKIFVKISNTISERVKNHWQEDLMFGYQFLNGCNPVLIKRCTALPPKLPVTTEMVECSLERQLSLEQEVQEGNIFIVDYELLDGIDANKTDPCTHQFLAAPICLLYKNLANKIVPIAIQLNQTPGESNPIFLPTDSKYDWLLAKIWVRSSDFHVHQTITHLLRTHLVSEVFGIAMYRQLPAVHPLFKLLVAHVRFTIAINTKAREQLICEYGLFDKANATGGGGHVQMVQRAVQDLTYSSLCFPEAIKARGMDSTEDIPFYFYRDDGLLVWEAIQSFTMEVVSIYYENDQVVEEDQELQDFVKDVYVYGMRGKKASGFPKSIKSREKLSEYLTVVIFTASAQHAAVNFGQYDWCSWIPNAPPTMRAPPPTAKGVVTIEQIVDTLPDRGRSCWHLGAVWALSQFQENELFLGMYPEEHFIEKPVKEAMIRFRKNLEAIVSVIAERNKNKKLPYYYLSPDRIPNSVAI
Put plainly: Mouse hepatic 5'-lipoxygenase activity. As to conditions: Table VI; mouse hepatic, 60 min incubation; read-out: 5'-lipoxygenase IC50. In kind it is biochemical. The text has this: 1. Cf1 male mouse hepatic 10% homogenates in 0.25M sucrose+0.001MEDTA,pH 7.2.
5'-lipoxygenase Mylari, B.L., et al, J. Med.

For test [2], the system named is Hydroxyproline. The test is described as follows: Serum and urine hydroxyproline levels in vivo. As to conditions: Cf1 male mice, 8 mg/kg/day I.P. 14 days, N=6.

A word on the IC50: it is the concentration that inhibits the measured activity by half.

Molecules are shown by their SMILES.

With `CCCCCCCCCCCCCCCC[N+](C)(C)[BH2-]C(=O)O` [Compound 7, N,N-Dimethylhexadecylamine-carboxyborane], the IC50 in test [1] stood at 55.8 µM. In test [2], this molecule yielded a Hydroxyproline serum of 84.1 % Control and a Hydroxyproline urine of 28.7 % Control.

Values taken from patent publication US5312816A, “Method of combatting osteoporosis in mammalian subjects, utilizing organic boron compounds” (priority 1993, dated 1994).
